Drawing on patent publication US4425360A, “Pharmacologically active novel O-substituted pyruvic acid oximes” (Boehringer Mannheim GmbH, priority 1980, dated 1984), this text covers minimal effective dose and inhibition in vivo for 19 compounds.

Test [1] relates to blood-glucose concentration. In words: Threshold dose of blood-glucose-lowering activity in fasting guinea pigs (i.p.). The format is in vivo, guinea pig. Conditions: Cavia porcellus, ip. On the procedure:
1. Test procedure for determination of threshold dose
Fasting guinea pigs were used as experimental models to determine the threshold dose of the blood-glucose-lowering activity of the substances to be investigated. Food was withheld from the animals used in the investigations for 16 hours prior to the start of the tests. The animals remained without food for the entire testing period but had free access to drinking water.
The substances were administered intraperitoneally as a solution of the potassium salt at pH 7.4.
A parallel control group was given an 0.9% NaCl solution.
The drawing of blood for determination of the glucose concentrations was effected immediately prior to administration of the substances and at one-hour intervals up to the fourth hour after the administration of the substances. To this end, an ear vein was carefully punctured with a No. 18 cannula, and the drops of blood issuing were picked up with a 10 μl capillary.
The blood-glucose concentration was determined in the hemolyzate by the specific hexokinase method. To this end, the 10 μl blood sample was pipetted into a stabilizer solution containing digitonin as hemolysis accelerator and maleinimide as […]. Following this, an aliquot was taken from the hemolyzate so obtained and determined by the hexokinase method on an LKB 8600 (made by LKB, Bromma, Sweden).
The dose which with the specified number of test animals per dose group (N=4) was just large enough to produce a significant lowering of fasting glycemia (p>0.05) was adopted as threshold dose.

For the next test, the system named is glucose resorption. The test is described as follows: Resorption-inhibiting activity: oral glucose loading in fasting guinea pigs. The format is in vivo, guinea pig. Conditions: Cavia porcellus, ip, 1 g glucose p.o., AUC difference vs control; for inhibition in vivo at 40 mg/kg: dose 40 mg/kg i.p.; for inhibition in vivo at 20 mg/kg: dose 20 mg/kg i.p.; for inhibition in vivo at 25 mg/kg: dose 25 mg/kg i.p. As for the experimental part:
2. Test procedure for determination of resorption-inhibiting activity
To determine the effect on glucose resorption, oral glucose loading was effected. To this end, the substance to be tested was administered intraperitoneally as potassium salt, as described, to a group of ten fasting guinea pigs. At the same time, 1 g glucose was orally administered to the animals as a 20% solution by means of an esophageal bougie.
After a preliminary value had been established, blood was taken from the animals at close intervals (20 min. to 200 min.) for determination of the glucose concentrations, as described.
A parallel control group was also given 1 g glucose p. o., and intraperitoneally a corresponding amount of 0.9% NaCl solution.
The blood-glucose concentration was determined in the hemolyzate by the hexokinase method, as described.
With regard to glucose resorption, the area under the concentration/time curve, calculated by means of the empirical trapeze formula, served as quantity to be measured. The difference in the area between the control and test groups, expressed in percent, was used as a measure for the inhibition of glucose resorption.

The mark [2] stands for this setting: potassium salt pH 7.4, N=4 per dose group, smallest dose significantly lowering fasting glycemia.
The mark [3] stands for this setting: potassium salt pH 7.4, N=4, remark printed: weak.

Consider `CC(=NOCC#Cc1ccccc1)C(=O)O` [Example 2d, 2-(3-phenyl-2-propynyloxyimino)-propionic acid], for which, in test [1] (potassium salt pH 7.4, N=4, remark printed: wk. indiv. animals), the minimal effective dose (usually the smallest amount tested that counted as effective) turned out to be 25 mg/kg. In the test on glucose resorption, 40 mg/kg produced 65% inhibition in vivo.

Consider `O=C(O)C(CF)=NOCC=Cc1ccccc1` [Example 9, 2-(Cinnamyloxyimino)-3-fluoropropionic acid], for which the minimal effective dose in test [1] (setting [2]) turned out to be 25 mg/kg. Besides, 20 mg/kg produced 26% inhibition in vivo with glucose resorption.

For `CC(=CCON=C(C)C(=O)O)c1ccccc1` [Example 3, 2-(γ-Methylcinnamyloxyimino)-propionic acid], the minimal effective dose in test [1] (setting [2]) was determined as 50 mg/kg. Besides, in the test on glucose resorption (dose 30 mg/kg i.p.), the inhibition in vivo (as a rule, the percentage by which the read-out fell short of the control) at 30 mg/kg turned out to be 0%.

For the compound `CC(=NOCCCc1ccccc1)C(=O)[O-].[Na+]` [Example 1b, sodium 2-(3-phenylpropyloxyimino)-propionate], the minimal effective dose in test [1] (setting [2]) lay within 25 to 50 mg/kg. This compound gave an inhibition in vivo at 20 mg/kg with glucose resorption of 39%.

For the compound `CC(=NOCC=Cc1ccc(F)cc1)C(=O)O` [Example 5, 2-(4-Fluorocinnamyloxyimino)-propionic acid], in test [1] (setting [2]), the minimal effective dose came to 50 mg/kg. The inhibition in vivo at 40 mg/kg in the test with glucose resorption was determined as 3%.

In the case of `C=CCON=C(C)C(=O)O` [Example 4c, 2-(allyloxyimino)-propionic acid], the minimal effective dose in test [1] (setting [2]) was > 50 mg/kg. Moreover, the inhibition in vivo at 40 mg/kg with glucose resorption amounted to 37%.

For the compound `CC(=NOCCOc1ccccc1)C(=O)[O-].[Na+]` [Example 1c, sodium 2-(2-phenoxyethyloxyimino)-propionate], in test [1] (setting [3]), the minimal effective dose turned out to be 50 mg/kg. This compound came in with an inhibition in vivo at 40 mg/kg in the test on glucose resorption of 25%.

For the compound `CCC(=NOCC=Cc1ccccc1)C(=O)O` [Example 10a, 2-cinnamyloxyiminobutyric acid], the minimal effective dose in test [1] (setting [2]) was determined as 25 mg/kg. Besides, the inhibition in vivo at 20 mg/kg in the test with glucose resorption is 0%.

On to `CC(=NOCC=Cc1cccc(C(F)(F)F)c1)C(=O)O` [Example 5a, 2-(3-trifluoromethylcinnamyloxyimino)-propionic acid], for which the minimal effective dose in test [1] (setting [2]) worked out at 50 mg/kg. This compound returned an inhibition in vivo at 40 mg/kg with glucose resorption of 34%.

Take `CC(=NOCC=Cc1cc(Cl)ccc1C)C(=O)O` [Example 5f, 2-(5-chloro-2-methylcinnamyloxyimino)-propionic acid]: the minimal effective dose in test [1] (setting [2]) was found to be 50 mg/kg. This compound showed an inhibition in vivo at 40 mg/kg with glucose resorption of 33%.

Consider `O=C(O)C=NOCC=Cc1ccccc1` [Example 10, Cinnamyloxyiminoacetic acid], for which the minimal effective dose in test [1] (setting [2]) was > 50 mg/kg. The compound further returned an inhibition in vivo at 25 mg/kg in the test on glucose resorption of 69%.

With `COc1cccc(C=CCON=C(C)C(=O)O)c1` [Example 5D, 2-(3-methoxycinnamyloxyimino)-propionic acid], the minimal effective dose in test [1] (setting [2]) was found to be 25 mg/kg. Also, the inhibition in vivo at 25 mg/kg with glucose resorption was 36%.

For the compound `CC(=NOCC=Cc1ccc(Cl)cc1)C(=O)O` [Example 4b, 2-(4-chlorocinnamyloxyimino)-propionic acid], the minimal effective dose in test [1] (potassium salt pH 7.4, N=4, remark printed: flat D-W curve) lay within 25 to 50 mg/kg. This compound also had an inhibition in vivo at 20 mg/kg with glucose resorption of 10%.

As to `CC(=NOCCc1ccccc1)C(=O)O` [Example 2a, 2-(2-phenylethyloxyimino)-propionic acid], in test [1] (setting [2]), the minimal effective dose is 75 mg/kg. This compound also had an inhibition in vivo at 40 mg/kg with glucose resorption of 33%.

On to `CC(=NOCC=Cc1cccc(Cl)c1)C(=O)O` [Example 4, 2-(3-Chlorocinnamyloxyimino)-propionic acid], for which, in test [1] (setting [2]), the minimal effective dose worked out at 25 mg/kg. The compound also displayed an inhibition in vivo at 20 mg/kg in the test with glucose resorption of 55%.

Turning to `CC(=NOCC=Cc1ccccc1)C(=O)O` [Example 3a, 2-cinnamyloxyiminopropionic acid], the minimal effective dose in test [1] (setting [2]) is 25 mg/kg. Further, the inhibition in vivo at 10 mg/kg with glucose resorption (dose 10 mg/kg i.p.) was 33%.

In the case of `CC(=Cc1ccccc1)CON=C(C)C(=O)O` [Example 3b, 2-(β-methylcinnamyloxyimino)-propionic acid], the minimal effective dose in test [1] (setting [2]) was found to be 50 mg/kg. In the test on glucose resorption, this compound had an inhibition in vivo at 40 mg/kg of 40%.

Consider `CC(=NOCC=Cc1ccccc1)C(=O)N1CCN(C)CC1` [Example 8, 4-[2-(Cinnamyloxyimino)-propionyl]-1-methylpiperazine], for which the minimal effective dose in test [1] (setting [2]) is > 50 mg/kg. This compound also displayed an inhibition in vivo at 40 mg/kg in the test with glucose resorption of 44%.

For `CC(=NOCC=Cc1ccccc1Cl)C(=O)O` [Example 4a, 2-(2-chlorocinnamyloxyimino)-propionic acid], the minimal effective dose in test [1] (setting [3]) was determined as 50 mg/kg. The compound also returned an inhibition in vivo at 40 mg/kg with glucose resorption of 41%.
